Here are results for two molecules from BindingDB's records for doi:10.7270/Q2MS3R62 (Burnham Center For Chemical Genomics, 2007).

The target in the test is Heat shock cognate 71 kDa protein (Homo sapiens, UniProt P11142).

The structures appear in SMILES notation.

Chain of Heat shock cognate 71 kDa protein (P11142 whole entry): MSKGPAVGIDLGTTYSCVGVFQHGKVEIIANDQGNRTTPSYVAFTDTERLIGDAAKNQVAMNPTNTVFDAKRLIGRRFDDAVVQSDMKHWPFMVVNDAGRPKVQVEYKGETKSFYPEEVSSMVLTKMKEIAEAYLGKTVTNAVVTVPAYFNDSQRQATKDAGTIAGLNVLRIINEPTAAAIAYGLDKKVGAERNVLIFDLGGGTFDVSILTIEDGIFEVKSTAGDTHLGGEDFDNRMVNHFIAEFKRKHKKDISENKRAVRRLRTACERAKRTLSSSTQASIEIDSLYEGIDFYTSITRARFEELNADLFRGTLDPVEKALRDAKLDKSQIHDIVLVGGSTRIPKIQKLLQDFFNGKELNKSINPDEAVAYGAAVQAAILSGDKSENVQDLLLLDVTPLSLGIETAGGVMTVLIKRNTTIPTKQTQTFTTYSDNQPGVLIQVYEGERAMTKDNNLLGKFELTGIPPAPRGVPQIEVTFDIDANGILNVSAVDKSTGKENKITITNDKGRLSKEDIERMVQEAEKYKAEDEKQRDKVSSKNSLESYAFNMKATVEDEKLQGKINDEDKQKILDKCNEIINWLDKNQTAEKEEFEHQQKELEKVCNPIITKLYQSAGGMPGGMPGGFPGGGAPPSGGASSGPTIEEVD

By IC50 is commonly meant the concentration at which inhibition is half-maximal. For the molecule `C=c1[nH]n(-c2cccc(C(=O)O)c2)c(=O)c1=CC=Cc1ccco1` [SMR000113614], the midpoint of inhibition, the IC50, lay at 999 µM.
Under `CC(=O)N1CCC2(CC1)c1c(n[nH]c1C)OC(=N)C2C#N` (configuration not stated) [6-azanyl-1'-ethanoyl-3-methyl-spiro[2H-pyrano[2,3-c]pyrazole-4,4'-piperidine]-5-carbonitrile] stands 999 µM.
